Positions count from the first letter of the chain named.

Here are results for 13 compounds from patent US8513423B2 (Janssen Pharmaceutica, NV, priority 2010, dated 2013).

Test [1] concerns the target T1, purified wild type MGL (wt-MGLL 6H-11-313) (Homo sapiens, UniProt Q99685).
T1 construct: purified wild type MGL (wt-MGLL 6H-11-313)
T1 sequence (Q99685 1-303): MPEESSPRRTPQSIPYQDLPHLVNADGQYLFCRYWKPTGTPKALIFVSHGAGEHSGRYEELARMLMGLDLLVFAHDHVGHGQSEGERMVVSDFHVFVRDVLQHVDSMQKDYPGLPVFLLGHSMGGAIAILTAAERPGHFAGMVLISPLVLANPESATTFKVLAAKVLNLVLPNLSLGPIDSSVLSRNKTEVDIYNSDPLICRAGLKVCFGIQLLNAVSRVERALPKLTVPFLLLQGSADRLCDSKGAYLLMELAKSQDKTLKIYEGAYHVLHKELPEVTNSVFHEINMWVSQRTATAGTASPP
The experiment in a line: MGL enzyme activity assay (4MU-B cleavage), wild type MGL. The following applies: 10 μM 4MU-B, 5 nM enzyme, 37° C., read-out: MGL wild type inh IC50. Type of test: biochemical. The procedure: All rate-based assays were performed in black 384-well polypropylene PCR microplates (Abgene) in a total volume of 30 μL. Substrate 4-methylumbelliferyl butyrate (4MU-B; Sigma) and either purified mutant MGL (mut-MGLL 11-313 L179S L186S) or purified wild type MGL (wt-MGLL 6H-11-313) were diluted separately into 20 mM PIPES buffer (pH=7.0), containing 150 mM NaCl and 0.001% Tween 20. Compounds of Formula (I) were pre-dispensed (50 nL) into the assay plate using a Cartesian Hummingbird prior to adding 4MU-B (25 μL of 1.2× solution to a final concentration of 10 μM) followed by enzyme (5 μL of a 6× solution to a final concentration of 5 nM) to initiate the reaction. Final compound concentrations ranged from 17 to 0.0003 μM. The fluorescence change due to 4MU-B cleavage was monitored with excitation and emission wavelengths of 335 and 440 nm, respectively, and a bandwidth of 10 nm (Safire^2, Tecan) at 37° C. for 5 min.
The IC50 values for compounds of Formula (I) were determined using Excel from a fit of the equation to the concentration-response plot of the fractional activity as a function of inhibitor concentration.

For another test, the target named is T2, MGL (Rattus norvegicus, UniProt Q8R431).
T2 construct: one g rat brain was homogenized; from tissue; host or cells: rat brain homogenate
T2 sequence (Q8R431 1-303): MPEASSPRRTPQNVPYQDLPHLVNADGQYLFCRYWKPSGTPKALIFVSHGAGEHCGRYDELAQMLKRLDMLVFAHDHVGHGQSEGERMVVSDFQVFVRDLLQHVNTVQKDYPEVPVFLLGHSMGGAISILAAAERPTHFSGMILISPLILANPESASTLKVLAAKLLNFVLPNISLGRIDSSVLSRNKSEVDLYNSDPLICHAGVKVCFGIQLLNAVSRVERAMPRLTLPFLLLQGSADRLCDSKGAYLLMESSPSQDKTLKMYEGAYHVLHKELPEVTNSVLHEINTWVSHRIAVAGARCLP
The experiment in a line: 2-AG accumulation assay in rat brain homogenate. Type of test: biochemical. The following applies: compound @1 μM; for 2-AG accumulation, percent of vehicle control at 1 µM: read-out: Rat Brain 2AG % VehCntrl (%) @1 μM. The method, then:
After a 15-min incubation time at 37° C., CaCl2 (final concentration=10 mM) was added and then incubated for 15 min at 37° C. in a total volume of 5 mL. The reactions were stopped with 6 mL organic solvent extraction solution of 2:1 chloroform/methanol. Accumulated 2-AG in the organic phase was measured by a HPLC/MS method, according to the following equation: percent vehicle=(2-AG accumulation in the presence of compound/2-AG accumulation in vehicle)×100.

A further test deals with T3, mutant MGL (Homo sapiens, UniProt Q99685, L169S/L176S).
T3 construct: purified mutant MGL (mut-MGLL 11-313 L179S L186S)
T3 sequence (Q99685 1-303 L169S/L176S): T1 sequence (Q99685 1-303) with L169S, L176S
The experiment in a line: MGL ThermoFluor assay - mutant. Type of test: binding. The following applies: 0.07 mg/ml mutant MGL, pH=7.0; read-out: MGL mutant ThermoFluor Kd. The procedure:
The ThermoFluor (TF) assay is a 384-well plate-based binding assay that measures thermal stability of proteins^1,2. The experiments were carried out using instruments available from Johnson & Johnson Pharmaceutical Research & Development, LLC. TF dye used in all experiments was 1,8-ANS (Invitrogen: A-47). Final TF assay conditions used for MGL studies were 0.07 mg/ml of mutant MGL, 100 μM ANS, 200 mM NaCl, 0.001% Tween-20 in 50 mM PIPES (pH=7.0).
Screening compound plates contained 100% DMSO compound solutions at a single concentration. For follow-up concentration-response studies, compounds were arranged in a pre-dispensed plate (Greiner Bio-one: 781280), wherein compounds were serially diluted in 100% DMSO across 11 columns within a series. Columns 12 and 24 were used as DMSO reference and contained no compound. For both single and multiple compound concentration-repsonse experiments, the compound aliquots (46 nL) were robotically predispensed directly into 384-well black assay plates (Abgene: TF-0384/k) using the Hummingbird liquid handler. Following compound dispension, protein and dye solutions were added to achieve the final assay volume of 3 μL. The assay solutions were overlayed with 1 μl of silicone oil (Fluka, type DC 200: 85411) to prevent evaporation.
Bar-coded assay plates were robotically loaded onto a thermostatically controlled PCR-type thermal block and then heated from 40 to 90° C. degrees at a ramp-rate of 1° C./min for all experiments. Fluorescence was measured by continuous illumination with UV light (Hamamatsu LC6), supplied via fiber optics and filtered through a band-pass filter (380-400 nm; >6 OD cutoff). Fluorescence emission of the entire 384-well plate was detected by measuring light intensity using a CCD camera (Sensys, Roper Scientific) filtered to detect 500±25 nm, resulting in simultaneous and independent readings of all 384 wells. A single image with 20-sec exposure time was collected at each temperature, and the sum of the pixel intensity in a given area of the assay plate was recorded vs temperature and fit to standard equations to yield the Tm^1. • 1. Pantoliano, M. W., Petrella, E. C., Kwasnoski, J. D., Lobanov, V. S., Myslik, J., Graf, E., Carver, T., Asel, E., Springer, B. A., Lane, P., and Salemme, F. R. (2001) J Biomol Screen 6, 429-40. • 2. Matulis, D., Kranz, J. K., Salemme, F. R., and Todd, M. J. (2005) Biochemistry 44, 5258-66.
The Kd values for compounds of Formula (I) were determined from a fit of the equation to the concentration-response plot of the fractional activity as a function of Tm. For some experiments, quantitative NMR spectroscopy (qNMR) was used to measure concentration of the initial 100% DMSO compound solutions and, using the same fitting method, qKd values were determined
(Differential scanning fluorimetry follows unfolding on heating by fluorescence.)

On to “1-(1H-Pyrrol-2-ylcarbonyl)-4-[1-({4-3-(trifluoromethyl)benzyl]phenyl}carbonyl)azetidin-3-yl]piperidine [Cpd 25]”, for which the IC50 in test [1] is 0.012 µM. Also, the “Rat Brain 2AG % VehCntrl (%) @1 μM” value on MGL (percent vehicle) came out at 540%. Moreover, the Kd on mutant MGL is 0.0275 µM.
In the case of `O=C(c1ccc(-c2ccccc2)cc1)N1CC(C2CCN(C(=O)c3ccns3)CC2)C1` [Cpd 3, 4-[1-(Biphenyl-4-ylcarbonyl)azetidin-3-yl]-1-(isothiazol-5-ylcarbonyl)piperidine], the IC50 in test [1] came out at 0.0339 µM. For the same compound, at MGL, the 2-AG accumulation, percent of vehicle control at 1 µM is 135%. In addition, the Kd at mutant MGL was 0.0557 µM.
The matching figures for `O=C(c1cscn1)N1CCC(C2CN(C(=O)c3sc4cc(F)ccc4c3Cl)C2)CC1` [Cpd 7, 4-{1-[(3-Chloro-6-fluoro-1-benzothiophen-2-yl)carbonyl]azetidin-3-yl}-1-(1,3-thiazol-4-ylcarbonyl)piperidine]: 0.0565 µM, 185% and 0.025 µM.
Regarding `O=C(c1nccs1)N1CCC(C2CN(C(=O)c3sc4cc(F)ccc4c3Cl)C2)CC1` [Cpd 8, 4-{1-[(3-Chloro-6-fluoro-1-benzothiophen-2-yl)carbonyl]azetidin-3-yl}-1-(1,3-thiazol-2-ylcarbonyl)piperidine], the IC50 in test [1] came out at 0.007 µM. On MGL, the 2-AG accumulation, percent of vehicle control at 1 µM was determined as 523%. The Kd at mutant MGL was determined as 0.004 µM.
Regarding `O=C(c1ccc(-c2cccc(C(F)(F)F)c2)cc1)N1CC(C2CCN(C(=O)c3cscn3)CC2)C1` [Cpd 10, 1-(1,3-Thiazol-4-ylcarbonyl)-4-(1-{[3′-(trifluoromethyl)biphenyl-4-yl]carbonyl}azetidin-3-yl)piperidine], the IC50 in test [1] amounted to 0.0155 µM. Also, at MGL, the 2-AG accumulation, percent of vehicle control at 1 µM is 194%. Moreover, at mutant MGL, the Kd was 0.011 µM.
As to `O=C(c1ccc(-c2ccc(C(F)(F)F)s2)cc1)N1CC(C2CCN(C(=O)c3cscn3)CC2)C1` [Cpd 12, 1-(1,3-Thiazol-4-ylcarbonyl)-4-[1-({4-[5-(trifluoromethyl)thiophen-2-yl]phenyl}carbonyl)azetidin-3-yl]piperidine], the IC50 in test [1] was 0.01 µM. Further, the 2-AG accumulation, percent of vehicle control at 1 µM on MGL stood at 134%. Moreover, at mutant MGL, the equilibrium dissociation constant (Kd) amounted to 0.022 µM.
For the compound `O=C(c1ccc(Cc2cccc(C(F)(F)F)c2)cc1)N1CC(C2CCN(C(=O)c3cscn3)CC2)C1` [Cpd 13, 1-(1,3-Thiazol-4-ylcarbonyl)-4-[1-({4-[3-(trifluoromethyl)benzyl]phenyl}carbonyl)azetidin-3-yl]piperidine], the IC50 in test [1] was less than 0.005 µM. Besides, the 2-AG accumulation, percent of vehicle control at 1 µM on MGL was 335%. In addition, on mutant MGL, the Kd stood at 0.028 µM.
The matching figures for `Cc1c(C(=O)N2CC(C3CCN(C(=O)c4cscn4)CC3)C2)sc2cc(C(F)(F)F)ccc12` [Cpd 14, 4-(1-{[3-Methyl-6-(trifluoromethyl)-1-benzothiophen-2-yl]carbonyl}azetidin-3-yl)-1-(1,3-thiazol-4-ylcarbonyl)piperidine]: 0.005 µM, 231% and 0.005 µM.
`O=C(c1nccs1)N1CCC(C2CN(C(=O)c3ccc(-c4ccccc4)cc3F)C2)CC1` [Cpd 15, 4-{1-[(3-Fluorobiphenyl-4-yl)carbonyl]azetidin-3-yl}-1-(1,3-thiazol-2-ylcarbonyl)piperidine]: the IC50 in test [1] stood at 0.007 µM. Besides, the 2-AG accumulation, percent of vehicle control at 1 µM on MGL was 281%. On mutant MGL, the Kd worked out at 0.009 µM.
As to `O=C(c1ccc(-c2cccc(C(F)(F)F)c2)cc1)N1CC(C2CCN(C(=O)c3nccs3)CC2)C1` [Cpd 16, 1-(1,3-Thiazol-2-ylcarbonyl)-4-(1-{[3′-(trifluoromethyl)biphenyl-4-yl]carbonyl}azetidin-3-yl)piperidine], the IC50 in test [1] was 0.007 µM. Also, the 2-AG accumulation, percent of vehicle control at 1 µM at MGL came to 493%. For the same compound, the Kd at mutant MGL was 0.002 µM.
As for `O=C(c1cccc(-c2cccc(F)c2)c1)N1CC(C2CCN(C(=O)c3nccs3)CC2)C1` [Cpd 17, 4-{1-[(3′-Fluorobiphenyl-3-yl)carbonyl]azetidin-3-yl}-1-(1,3-thiazol-2-ylcarbonyl)piperidine], the IC50 in test [1] came out at 0.0173 µM. In addition, on MGL, the 2-AG accumulation, percent of vehicle control at 1 µM came out at 184%. Moreover, the Kd on mutant MGL is 0.099 µM.
Take `O=C(c1ccc(-c2ccc(C(F)(F)F)s2)cc1)N1CC(C2CCN(C(=O)c3nccs3)CC2)C1` [Cpd 18, 1-(1,3-Thiazol-2-ylcarbonyl)-4-[1-({4-[5-(trifluoromethyl)thiophen-2-yl]phenyl}carbonyl)azetidin-3-yl]piperidine]: in test [1], the IC50 stood at 0.0125 µM. Besides, the 2-AG accumulation, percent of vehicle control at 1 µM on MGL is 457%. The equilibrium dissociation constant (Kd) on mutant MGL was 0.003 µM.
Take `O=C(c1ccc(Cc2cccc(C(F)(F)F)c2)cc1)N1CC(C2CCN(C(=O)c3nccs3)CC2)C1` [Cpd 19, 1-(1,3-Thiazol-2-ylcarbonyl)-4-[1-({4-[3-(trifluoromethyl)benzyl]phenyl}carbonyl)azetidin-3-yl]piperidine]: the IC50 in test [1] was less than 0.005 µM. The 2-AG accumulation, percent of vehicle control at 1 µM at MGL came to 559%. Further, on mutant MGL, the Kd was 0.009 µM.

Broadly, the IC50 is the concentration needed to halve the response being measured. By Kd is commonly meant the constant that tells how readily two partners part at equilibrium.
